Data published in patent US5461057A, “Hydro-ethano-indeno-pyridines” (priority 1994, dated 1995).
Structures can show the parent of a compound that is named as a salt.

Experiments:
[1] = system: LOX human melanoma cell adhesion to polylysine; assay: LOX melanoma cell adhesion to polylysine; assay type: cell-based; conditions: read-out: Poly Lys IC50
Description: (§1) Adhesion assays were run essentially as described previously (Pai et al., J. Biomed. Res. 2: 53, 1992). 96-well plates were coated with human fibronectin (140 ng/well), human vitronectin (75 ng/well), human collagen I (100 ng/well), human collagen IV (100 ng/well), human fibrinogen (1 μg/well), murine laminin (600 ng/well), or polylysine, and incubated overnight in a humidified 37° C. incubator. Excess fibronectin or other substrate was then removed and 0.2 ml of 2 mg/ml bovine serum albumin (BSA)in Dulbecco's phosphate-buffered saline (DPBS) was added to each well, incubated for 2 hours at 37° C., and removed. LOX human melanoma cells, M27 murine lung carcinoma cells or B16F10 mouse melanoma cells were detached from tissue culture flasks with RPMI medium containing 0.2M urea and 10 mM EDTA, and 0.18 ml of cells were added to each well to a final cell concentration of 1×10^5 cells/well. For inhibition studies 20 μl of 10× compound was added to the wells prior to cell addition. Cells were allowed to adhere for 1 hour at 37° C. The wells were then gently washed twice with 0.2 ml DPBS. The fluorescent dye calcein AM (Molecular Probes, Eugene Oreg.) in DPBS (0.1 ml of 1 μM) was added to each well, and the plates were incubated for 1 hour at room temperature. Adherent cells were quantitated by reading the fluorescence on a Cytofluor 2300 fluorescent plate reader (Millipore) at 485 nm excitation and 530 nm emission.

[2] = Calcein cytotoxicity assay; assay type: cell-based; conditions: human, lox melanoma cells; 2 hours, calcein AM assay; read-out: 2 Hr Tox LD50
Description: LOX human melanoma cells were detached from tissue culture flasks with RPMI medium containing 0.2M urea and 10 mM EDTA, and 0.18 ml of cells were added to each well to a final cell concentration of 5×10^4 cells/well. 20 μl of 10× compound was added to the wells prior to cell addition. Cells were incubated with the compound at 37° C. for 1 hour or 5 hour as indicated. Calcein AM in DPBS (0.02 ml of 5 μM) was added to each well, and the plates were incubated for an additional 1 hour at room temperature. Viable cells were quantitated by reading the fluorescence on a Cytofluor 2300 fluorescent plate reader at 485 nm excitation and 530 nm emission.

pulmonary resistance = assay: Pulmonary Resistance in the Anesthetized Rat; assay type: in vivo; conditions: 0.5 mpk, i.v., mean of 5 animals, % decrease in pre-drug baseline resistance; for inhibition in vivo at 0.5 mg/kg: Rattus norvegicus, iv, read-out: Pulmonary Resistance in Rats, % Inhibition
Description: Rats (400-500 g) anesthetized with dialurethane were surgically prepared with tracheal and esophageal catheters. These catheters were connected to pressure transducers for recording of air flow, tracheal and esophageal pressures. These pressures formed the basis for measurement of pulmonary resistance. Inhibition of pulmonary resistance is a reflection of bronchodilation.
All compounds were tested i. v. in 5 separate animals. All data are expressed in % decrease in the pre-drug baseline resistance and each number given is the mean of the 5 animals tested.
The model is sensitive to bronchodilator activity.
Further information relating this test can be obtained from the following publications which are hereby incorporated by reference: Comroe et al, J. Appl. Physio. 4:439-44 (1959); Dungan et al J. Pharmacol. Exp. Therap. 164:290-301(1968); and Mead, J. et al. J. Appl. Physio. 5:779-796 (1953).

[3] = system: LOX human melanoma cell adhesion to human fibronectin; assay: LOX melanoma cell adhesion to fibronectin; assay type: cell-based; conditions: Homo sapiens, LOX; for inhibition at 10 µM: read-out: % Inhibition at 10 μM; for inhibition at 50 µM: read-out: % Inhibition at 50 μM; for IC50: Table 4, 1 hour adhesion, read-out: LOX FN IC50
Description: as §1
LOX FN-IC50 value for inhibition of adhesion of LOX human melanoma cells to fibronectin coated on a plastic surface.

[4] = system: histamine-induced dyspnea; assay: Bronchodilator (in vivo) Guinea Pig Dyspnea; conditions: oral, one hour before histamine challenge
Description: Unanesthetized guinea pigs (250-350 g), fasted overnight were placed in individual closed aerosol chambers which were connected to a Monoghan Ultrasonic nebulizer. The nebulizer can deliver an ultrasonic fog of uniform particles in a range of 1-8 microns. A 0.1% solution of histamine is aerosolized into the chambers causing the guinea pigs to develop dyspnea. The test drug was given orally one hour before the histamine challenge and the onset of dyspnea was recorded. Saline control animals developed dyspnea within 90-120 seconds of aerosol exposure. […] The data was expressed as the number tested over the number survived. The model was sensitive to bronchodilator and H1 antihistamine activity. Further information relating this test can be obtained from the following two publications which are hereby incorporated by reference: Dungan, K. W. and Lish, P. M. J Allergy 32:139-151 (1961). and Lish, P. M., Robbins, S. I. and Petres E. L. J. Pharmacol. Exp. Therap. 153 L 1538 (1966 ).

TBZ-induced ptosis = assay: Effects on tetrabenazine (TBZ)-induced ptosis in mice; assay type: in vivo, mouse; conditions: for ED50: Mus musculus, po
Text: Clinically active antidepressant drugs are known to block TBZ-induced ptosis in mice (See Psychosomatic Medicine, Nodine and Moyer, Eds. Lea and Febiger, Philadelphia, 1962, pp 683-90, which is hereby incorporated by reference). Activity in this test is used to predict anti-depressant activity in man.
The procedure for the TBZ-Induced Ptosis Test in Mice is set forth in Psychosomatic Medicine, Nodine and Moyer, Eds. Lea and Febiger, which is hereby incorporated by reference and in PCT/US91/06705, filed 20 Sep. 1991, which is mentioned above.
The results for this test are given below as ED50 's in the units of mg/kg.
TBZ refers to the test of effects on tetrabenazine induced ptosis in mice, p.o.;

[5] = system: acetic acid-induced writhing; assay: Acetic Acid Writhing Test in Mice; assay type: in vivo, mouse; conditions: Mus musculus, po, read-out: WRITH ED50
Text: The blockade of writhing induced by the intraperitoneal injection of acetic acid is an established experimental animal model for the screening of antinociceptive drugs (drugs which prevent the appreciation or transmission of pain sensations).
The procedure for the Acetic Acid Writhing Test in Mice is set forth in Hendershot et al, J. Pharmacol. Exp. Therap. 125:237, (1959); Koster et al., Fed. Proc. 18:412, (1959); and international application PCT/US91/06705, filed 20 Sep. 1991, which are hereby incorporated by reference.
The results for this test are given below in the units of mg/kg which is also abbreviated in this specification as mpk. The results for this test are given as effective doses (ED50 's).

metrazole = assay: Anti-metrazole test in mice; assay type: in vivo, mouse; conditions: Mus musculus, read-out: MTZ ED50
Description: The anti-metrazole test in mice was carried out as described in Everett et al, J. Pharmacol. Exp. Therap. 81:402-407 (1944); which is hereby incorporated by reference.
(§2) The results for this test are given below as ED50's in the units of mg/kg.

methamphetamine toxicity = assay: Methamphetamine toxicity test in mice; assay type: in vivo; conditions: Mus musculus, read-out: METHA ED50
Description: The methamphetamine toxicity test in mice was carried out as described in Burn et al, Arch. Int. Pharmacodyn 113:290-295, (1958); and Coscia et al, Arzneim-Forsch (Drug Research) 25:1436-1442, (1975); which are hereby incorporated by reference.
as §2
METHA refers to the methamphetamine toxicity test in mice;

[6] = Cavia porcellus, 1 h, 100 mg/kg, read-out: DYSP survivors (converted)

SMILES	IC50 [1] [µM]	CC50 at 2 h [2] [µM]	Pulmonary Resistance in Rats, % Inhibition (pulmonary resistance) [%]	inhibition at 10 µM [3] [%]	inhibition at 50 µM [3] [%]	IC50 [3] [µM]	DYSP survivors ([4]; 100 mg/kg)	ED50 (TBZ-induced ptosis) [mg/kg]	ED50 [5] [mg/kg]	ED50 (metrazole) [mg/kg]	ED50 (methamphetamine toxicity) [mg/kg]	responders at 50 mg/kg ([4]; Cavia porcellus, 1 h, 50 mg/kg, read-out: DYSP survivors (converted)) [%]	responders at 100 mg/kg [4, 6] [%]	observation in TBZ test (footnote c) (TBZ-induced ptosis; p.o., at the dose of 30 marked c)	DYSP survivors ([4]; 30 mg/kg)	DYSP survivors ([4]; 60 mg/kg)	inhibition in vivo at 0.5 mg/kg (pulmonary resistance) [%]	DYSP survivors ([4]; 50 mg/kg)
CN1C2CCC1C1C(=C(c3ccc(F)cc3)c3cc(F)ccc31)C2 (centres unmarked) [Compound H]	23.7	36.9	20	37.5	101	6.5	1/3	–	–	–	–	–	–	–	–	–	–	–
CN1C2CCC1C1C(=C(c3ccc(Cl)c(C(F)(F)F)c3)c3ccccc31)C2 (centres unmarked) [Compound N]	25.3	23.8	33	7	101	19.4	0/3	–	–	–	–	–	–	–	–	–	–	–
COc1ccc2c(c1)C(c1ccccc1)C1=C2C2CCC(C1)N2 (centres unmarked) [FF]	–	–	2	–	–	–	0/3	> 30	> 30	> 30	> 30	–	–	–	–	–	–	–
COc1ccc(C2(O)c3ccccc3C3C4CCC(CC32)N4)cc1 (centres unmarked) [JJ]	–	–	–	10.1	33.7	–	–	> 30	> 30	> 30	> 30	33.3	66.7	–	–	–	–	–
CN1C2CCC1C1C(=C(c3ccc(F)cc3)c3ccccc31)C2 (centres unmarked) [K]	71.6	116	34	27.6	100	15.5	3/3	> 30	–	> 30	14.9	–	–	animals were ataxic and depressed at this dose	0/3	1/3	–	–
CN1C2CCC1C1C(=C(c3cccc(C(F)(F)F)c3)c3ccccc31)C2 (stereo not drawn) [L, 1 (SR):3(RS)-1,3-Ethano-2-methyl-5-(m-trifluoromethylphenyl)-1,3,4,9b-tetrahydro-H-indeno[1,2-c] pyridine. HCl 0.75H2 O.]	80.4	29.7	–	23.7	100	20	–	–	–	–	–	–	100	–	–	–	14	–
Cc1ccc(C2(O)c3ccccc3C3C4CCC(CC32)N4C)cc1 (centres unmarked) [OO]	–	–	–	6.6	23.7	–	–	–	–	–	–	–	33.3	–	–	–	-18	–
CN1C2CCC1C1C(=C(c3cccc(F)c3)c3ccc(F)cc31)C2 (centres unmarked) [P]	297	64.3	12	-2.4	99.8	11.7	–	–	–	–	–	–	–	–	–	–	–	0/3
